Test results taken from patent publication US20240299486A1, “ADDRESSING INJECTION SITE REACTIONS ASSOCIATED WITH THE ADMINISTRATION OF ELAMIPRETIDE” (STEALTH BIOTHERAPEUTICS INC., priority 2022, published 2024).

Experiments:
MRGPRX2 receptor = biological target: T1, MRGPRX2 receptor (Homo sapiens, UniProt Q96LB1); assay: Fluo-4 calcium assay in MRGPRX2 expressing Chem-1 cells; assay type: cell-based; conditions: Chem-1 cells, Fluo-4
T1 construct: host or cells: Chem-1 cells (G418-selected)
T1 sequence (Q96LB1 1-330): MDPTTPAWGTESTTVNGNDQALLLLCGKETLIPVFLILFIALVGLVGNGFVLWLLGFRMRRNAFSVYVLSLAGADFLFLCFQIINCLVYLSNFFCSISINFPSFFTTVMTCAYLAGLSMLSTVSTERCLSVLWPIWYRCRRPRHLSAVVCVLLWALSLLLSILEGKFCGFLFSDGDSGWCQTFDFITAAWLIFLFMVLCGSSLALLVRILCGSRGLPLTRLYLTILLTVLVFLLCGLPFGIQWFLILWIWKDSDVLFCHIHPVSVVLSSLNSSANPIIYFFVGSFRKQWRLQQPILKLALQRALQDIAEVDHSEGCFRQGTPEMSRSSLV

[1] = tested on: control (non-MRGPRX2 expressing) Chem-1 cells; conditions: parent Chem-1 cells, Fluo-4
Description: MRGPRX2 expressing and control (non-MRGPRX2 expressing) Chem-1 cells lines were obtained from Discovery Services, EuroFins. Cells were cultured in Dulbecco's Modified Eagle Medium (DMEM) high glucose medium (4.5 g/L) with 10% fetal bovine serum (FBS), non-essential amino acids, and N-2-hydroxyethylpiperazine-N′-2-ethanesulfonic acid (HEPES) buffer (pH 7.0-7.6). Geneticin (G418) was used for selection of MRGPRX2-expressing Chem-1 cells. Cells were maintained at 37° C. at 5% CO2. Cells were seeded to a glass bottom 96-well plates at a density of 50,000 per well (Cellvis). Cells were loaded with Fluo-4 AM for 30 minutes at 37° C. at a concentration of 2.5 μM. Cells were washed once with Dulbecco's phosphate buffered saline (DPBS). Cells were rested at room temperature for 30 minutes before use and washed with DPBS. Cells were resuspended in 50 μl phosphate buffered saline (PBS) with calcium and magnesium. […] Plates were read immediately with a Biotek plate reader. Readings were taken every 6 seconds for 2 minutes.

C[C@H](CCC(=O)O)C[C@H](C)C[C@H](C)C(=O)/C=C(\O)[C@H](C)C[C@H](C)C/C=C/[C@@H](C)[C@@H](O)[C@@H](C)[C@@H](O)C[C@@H]1CC[C@@](C)([C@H]2CC[C@@](C)([C@@H](C)O)O2)O1 [Ionomycin]
activation of the MRGPRX2 expressing cells (calcium mobilization) (MRGPRX2 receptor): generates a calcium response
effect on cells lacking the MRGPRX2 receptor (calcium mobilization) [1]: generates a calcium response
